From ChEMBL document CHEMBL1201862, “PubChem BioAssay data set” (2004)
Calls of active or inactive are those of the source.

Key:
Streptokinase A = target: T1, Streptokinase A (Streptococcus pyogenes serotype M1, UniProt P10520); experiment: S. pyogenes streptokinase expression inhibitors, potency, dose response, plasminogen activation absorbance, OD405 (AID 1914); format: functional, Streptococcus pyogenes M1 GAS;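 further: secreted streptokinase activity via plasminogen activation per viability signal from cell pellet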
T1 sequence (P10520 whole entry): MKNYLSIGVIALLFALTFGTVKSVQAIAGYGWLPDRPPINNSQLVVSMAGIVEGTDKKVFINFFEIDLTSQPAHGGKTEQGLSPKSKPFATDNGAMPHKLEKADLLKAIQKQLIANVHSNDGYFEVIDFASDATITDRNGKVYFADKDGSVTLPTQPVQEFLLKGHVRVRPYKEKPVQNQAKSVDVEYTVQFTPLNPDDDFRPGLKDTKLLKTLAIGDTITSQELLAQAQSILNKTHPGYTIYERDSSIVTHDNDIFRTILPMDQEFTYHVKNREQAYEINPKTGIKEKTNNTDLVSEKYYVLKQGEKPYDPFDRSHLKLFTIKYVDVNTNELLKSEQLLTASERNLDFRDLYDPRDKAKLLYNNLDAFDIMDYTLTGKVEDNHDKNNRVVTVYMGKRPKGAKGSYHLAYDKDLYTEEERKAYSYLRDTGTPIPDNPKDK

Streptococcus = experiment: Group A Streptococcus viability loss, dose response, counter-screen for streptokinase expression inhibitor project, luminescence, BacTiterGlo (AID 1915); format: functional, organism-based;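 further: potency for reduction of bacterial viability or growth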
[1] = test system: Streptococcus sp. 'group A'; experiment: growth inhibition of control SK(-) GAS strain, dose response, counter-screen for streptokinase expression inhibitor project, luminescence, kanamycin, BacTiterGlo, confirmation (AID 1900); format: functional, organism-based
Insulin-degrading enzyme = target: T2, Insulin-degrading enzyme (Homo sapiens, UniProt P14735); experiment: Dose Response: Fluorescence polarization-based cell-based high throughput dose response assay for inhibitors of insulin-degrading enzyme (IDE). [Related pubchem assays: 434962 (Primary screen (IDE inhibitors in singlicate)), 449730 (Counterscreen (Cytotoxicity in triplicate)), 435028 (Confirmation (IDE inhibitors in triplicate)), 434984 (Summary …; format: functional
T2 sequence (P14735 whole entry): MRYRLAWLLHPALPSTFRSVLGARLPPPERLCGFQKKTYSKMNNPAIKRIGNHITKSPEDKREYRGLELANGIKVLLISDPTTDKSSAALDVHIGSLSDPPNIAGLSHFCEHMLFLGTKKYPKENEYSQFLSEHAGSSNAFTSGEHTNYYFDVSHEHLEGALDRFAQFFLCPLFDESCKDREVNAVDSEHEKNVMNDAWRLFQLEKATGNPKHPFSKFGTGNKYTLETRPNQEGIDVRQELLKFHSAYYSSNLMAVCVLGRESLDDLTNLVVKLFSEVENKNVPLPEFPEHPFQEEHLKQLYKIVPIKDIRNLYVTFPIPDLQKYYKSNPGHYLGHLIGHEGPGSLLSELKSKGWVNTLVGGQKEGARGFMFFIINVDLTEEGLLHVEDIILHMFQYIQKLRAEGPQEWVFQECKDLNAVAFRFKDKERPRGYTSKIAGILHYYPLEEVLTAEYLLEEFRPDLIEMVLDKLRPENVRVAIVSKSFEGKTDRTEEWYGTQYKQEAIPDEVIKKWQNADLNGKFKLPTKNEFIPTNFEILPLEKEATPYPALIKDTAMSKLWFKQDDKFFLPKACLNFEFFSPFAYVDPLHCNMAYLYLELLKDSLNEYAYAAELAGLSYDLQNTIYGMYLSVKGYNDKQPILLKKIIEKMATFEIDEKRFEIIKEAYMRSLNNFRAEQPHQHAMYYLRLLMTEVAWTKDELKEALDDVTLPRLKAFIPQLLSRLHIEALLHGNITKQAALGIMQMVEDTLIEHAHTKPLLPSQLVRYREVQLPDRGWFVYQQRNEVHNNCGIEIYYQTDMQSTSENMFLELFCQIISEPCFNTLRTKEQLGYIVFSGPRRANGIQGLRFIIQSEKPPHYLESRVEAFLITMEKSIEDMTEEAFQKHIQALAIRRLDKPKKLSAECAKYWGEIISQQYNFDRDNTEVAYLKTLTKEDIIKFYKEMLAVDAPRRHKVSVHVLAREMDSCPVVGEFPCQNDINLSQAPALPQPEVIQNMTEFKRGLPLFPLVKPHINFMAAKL

[2] = Counterscreen for IDE inhibitors: Luminescence-based cell-based high throughput dose response assay to identify compounds that are cytotoxic to HEK cells. [Related pubchem assays: 434962 (Primary screen (IDE inhibitors in singlicate)), 449730 (Counterscreen (Cytotoxicity in triplicate)), 435028 (Confirmation (IDE inhibitors in triplicate)) …; format: functional; conditions: HEK293
HeLa = experiment: HeLa cell cytotoxicity, dose response, cytotoxicity control, 24 h, cherry-picked samples (AID 504726); format: functional, cell-based; conditions: Homo sapiens;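 further: potency for cytotoxicity as loss of luminescence signal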
[3] = target: Voltage-dependent T-type calcium channel subunit alpha-1H (Homo sapiens, UniProt O95180); format: functional;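 further: channel activity triggered by adding a high calcium stimulation buffer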
Sequence of Voltage-dependent T-type calcium channel subunit alpha-1H (O95180 whole entry): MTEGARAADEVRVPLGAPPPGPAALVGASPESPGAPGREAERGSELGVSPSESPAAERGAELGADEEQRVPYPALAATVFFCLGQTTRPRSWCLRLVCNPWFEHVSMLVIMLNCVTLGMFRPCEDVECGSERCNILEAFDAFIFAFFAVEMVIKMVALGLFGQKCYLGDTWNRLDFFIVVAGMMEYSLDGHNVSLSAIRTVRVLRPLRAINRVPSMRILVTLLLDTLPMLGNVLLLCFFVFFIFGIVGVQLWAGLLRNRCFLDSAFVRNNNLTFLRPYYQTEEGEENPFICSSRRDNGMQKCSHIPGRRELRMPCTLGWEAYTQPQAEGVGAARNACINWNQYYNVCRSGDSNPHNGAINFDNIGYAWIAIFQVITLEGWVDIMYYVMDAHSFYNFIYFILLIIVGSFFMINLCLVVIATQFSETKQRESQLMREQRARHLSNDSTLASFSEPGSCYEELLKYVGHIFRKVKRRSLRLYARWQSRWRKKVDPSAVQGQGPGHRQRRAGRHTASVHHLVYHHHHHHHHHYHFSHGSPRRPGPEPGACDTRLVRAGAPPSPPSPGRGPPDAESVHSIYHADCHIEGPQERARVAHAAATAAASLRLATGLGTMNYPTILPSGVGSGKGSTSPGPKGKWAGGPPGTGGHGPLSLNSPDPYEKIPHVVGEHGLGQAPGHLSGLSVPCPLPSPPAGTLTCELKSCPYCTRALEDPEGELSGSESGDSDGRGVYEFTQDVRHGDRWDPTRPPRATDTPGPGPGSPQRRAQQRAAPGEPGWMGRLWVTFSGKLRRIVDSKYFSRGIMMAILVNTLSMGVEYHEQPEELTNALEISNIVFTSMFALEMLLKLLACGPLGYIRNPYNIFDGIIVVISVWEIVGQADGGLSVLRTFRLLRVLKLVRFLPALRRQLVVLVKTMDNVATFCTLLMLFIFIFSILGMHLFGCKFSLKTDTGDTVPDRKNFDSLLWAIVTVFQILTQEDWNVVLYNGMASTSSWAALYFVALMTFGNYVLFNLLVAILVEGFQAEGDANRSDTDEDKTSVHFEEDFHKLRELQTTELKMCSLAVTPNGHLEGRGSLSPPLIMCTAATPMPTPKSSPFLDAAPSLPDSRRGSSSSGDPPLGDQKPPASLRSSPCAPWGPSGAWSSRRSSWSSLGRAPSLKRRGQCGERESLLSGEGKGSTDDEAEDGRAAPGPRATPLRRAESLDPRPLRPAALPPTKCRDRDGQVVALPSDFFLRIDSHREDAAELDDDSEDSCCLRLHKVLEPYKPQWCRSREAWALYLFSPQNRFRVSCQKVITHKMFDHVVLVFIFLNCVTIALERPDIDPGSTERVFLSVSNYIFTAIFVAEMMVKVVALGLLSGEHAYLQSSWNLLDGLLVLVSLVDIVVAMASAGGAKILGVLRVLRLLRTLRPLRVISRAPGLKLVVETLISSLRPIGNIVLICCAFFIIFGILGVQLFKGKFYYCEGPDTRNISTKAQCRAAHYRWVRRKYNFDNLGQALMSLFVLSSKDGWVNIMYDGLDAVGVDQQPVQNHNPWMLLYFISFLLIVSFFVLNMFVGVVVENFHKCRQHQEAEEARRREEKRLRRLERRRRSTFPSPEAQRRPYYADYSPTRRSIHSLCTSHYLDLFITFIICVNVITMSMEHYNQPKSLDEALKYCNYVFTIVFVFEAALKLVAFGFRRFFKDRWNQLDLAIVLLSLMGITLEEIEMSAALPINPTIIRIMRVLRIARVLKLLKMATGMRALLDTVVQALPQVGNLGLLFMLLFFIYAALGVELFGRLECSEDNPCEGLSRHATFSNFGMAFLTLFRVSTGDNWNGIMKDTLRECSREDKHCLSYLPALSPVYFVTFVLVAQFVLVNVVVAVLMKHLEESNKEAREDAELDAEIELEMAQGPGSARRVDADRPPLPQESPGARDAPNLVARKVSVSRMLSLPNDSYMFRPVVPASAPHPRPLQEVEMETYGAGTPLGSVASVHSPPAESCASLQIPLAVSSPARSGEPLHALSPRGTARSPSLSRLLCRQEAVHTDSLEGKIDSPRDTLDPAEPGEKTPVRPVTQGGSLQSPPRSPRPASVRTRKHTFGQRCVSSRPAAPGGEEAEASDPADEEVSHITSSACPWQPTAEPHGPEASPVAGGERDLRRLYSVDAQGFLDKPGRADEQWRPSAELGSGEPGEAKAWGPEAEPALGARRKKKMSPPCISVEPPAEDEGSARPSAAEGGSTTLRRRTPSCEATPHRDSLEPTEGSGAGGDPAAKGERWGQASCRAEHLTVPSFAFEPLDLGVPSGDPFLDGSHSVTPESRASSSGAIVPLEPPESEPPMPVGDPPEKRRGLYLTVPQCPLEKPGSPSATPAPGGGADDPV

Aspartyl aminopeptidase = target: T3, Aspartyl aminopeptidase (Plasmodium falciparum 3D7, UniProt Q8I2J3)
T3 sequence (Q8I2J3 whole entry): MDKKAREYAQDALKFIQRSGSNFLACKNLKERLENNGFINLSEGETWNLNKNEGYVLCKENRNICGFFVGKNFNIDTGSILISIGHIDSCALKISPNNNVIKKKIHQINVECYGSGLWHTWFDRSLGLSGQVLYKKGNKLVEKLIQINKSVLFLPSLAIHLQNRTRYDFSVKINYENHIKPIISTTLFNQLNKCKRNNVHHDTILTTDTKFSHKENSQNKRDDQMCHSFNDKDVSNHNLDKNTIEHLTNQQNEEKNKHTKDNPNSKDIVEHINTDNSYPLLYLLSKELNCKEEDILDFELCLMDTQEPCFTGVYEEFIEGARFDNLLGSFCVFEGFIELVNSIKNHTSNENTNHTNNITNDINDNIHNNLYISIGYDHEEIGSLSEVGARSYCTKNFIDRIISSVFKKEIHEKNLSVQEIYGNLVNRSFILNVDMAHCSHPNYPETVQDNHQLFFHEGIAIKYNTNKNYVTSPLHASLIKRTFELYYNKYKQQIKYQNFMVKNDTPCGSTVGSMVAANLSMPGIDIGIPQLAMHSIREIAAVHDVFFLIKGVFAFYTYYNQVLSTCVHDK

Procathepsin L = Procathepsin L (Homo sapiens, UniProt P07711)
Sequence of Procathepsin L (P07711 whole entry): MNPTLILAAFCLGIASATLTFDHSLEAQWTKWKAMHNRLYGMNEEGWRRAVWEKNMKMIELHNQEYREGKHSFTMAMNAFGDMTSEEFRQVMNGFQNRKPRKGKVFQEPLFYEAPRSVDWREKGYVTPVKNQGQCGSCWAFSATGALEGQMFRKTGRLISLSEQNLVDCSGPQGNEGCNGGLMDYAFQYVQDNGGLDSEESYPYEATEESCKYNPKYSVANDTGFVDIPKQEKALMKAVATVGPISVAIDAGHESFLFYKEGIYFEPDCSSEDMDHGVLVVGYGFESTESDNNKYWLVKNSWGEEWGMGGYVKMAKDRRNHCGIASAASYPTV

[4] = A cytotoxicity screen of small molecule inhibitors of the PhoP region in Salmonella typhi identified in the primary screen. [Related pubchem assays: 1850, 1864, 1985 ]; format: functional
[5] = target: T4, Ubiquitin-conjugating enzyme E2 N (Homo sapiens, UniProt P61088); format: functional;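 further: Dose-response confirmation in a TR-FRET assay detecting UBC13-driven polyubiquitin chain formation, inhibition measured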
T4 sequence (P61088 whole entry): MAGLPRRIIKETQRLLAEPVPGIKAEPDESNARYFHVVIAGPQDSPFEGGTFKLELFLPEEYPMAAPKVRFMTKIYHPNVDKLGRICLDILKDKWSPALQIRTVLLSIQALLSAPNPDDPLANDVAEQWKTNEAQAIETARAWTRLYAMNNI

[6] = target: T5, Microphthalmia-associated transcription factor (Homo sapiens, UniProt O75030); experiment: TRPM1 promoter luciferase signal decrease, dose response, MITF inhibitor project, cell-based, SK-MEL-5, cherry-picked, set 3 (AID 493073); format: functional
T5 sequence (O75030 whole entry): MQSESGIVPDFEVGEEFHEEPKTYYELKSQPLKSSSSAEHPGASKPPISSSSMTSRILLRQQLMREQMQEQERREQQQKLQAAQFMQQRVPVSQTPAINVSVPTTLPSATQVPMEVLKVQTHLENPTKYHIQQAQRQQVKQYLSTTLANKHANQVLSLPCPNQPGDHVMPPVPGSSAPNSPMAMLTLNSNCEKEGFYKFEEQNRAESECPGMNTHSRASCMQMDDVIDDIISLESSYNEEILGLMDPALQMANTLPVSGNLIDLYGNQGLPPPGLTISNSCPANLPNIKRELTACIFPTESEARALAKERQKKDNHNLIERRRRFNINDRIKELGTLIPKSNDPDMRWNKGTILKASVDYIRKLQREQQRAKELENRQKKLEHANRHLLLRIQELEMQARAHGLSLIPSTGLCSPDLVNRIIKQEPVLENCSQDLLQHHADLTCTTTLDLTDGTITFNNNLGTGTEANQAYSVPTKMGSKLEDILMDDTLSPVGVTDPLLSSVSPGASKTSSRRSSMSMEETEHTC

Protein RecA = target: T6, Protein RecA (Mycobacterium tuberculosis, UniProt P9WHJ3); experiment: Fluorescence Cell-Free Homogeneous Dose Retest to Identify Inhibitors of RecA-Intein Splicing Activity. [Related pubchem assays (depositor defined):AID2097, AID2223, AID489010, AID492950]; format: functional
T6 sequence (P9WHJ3 whole entry): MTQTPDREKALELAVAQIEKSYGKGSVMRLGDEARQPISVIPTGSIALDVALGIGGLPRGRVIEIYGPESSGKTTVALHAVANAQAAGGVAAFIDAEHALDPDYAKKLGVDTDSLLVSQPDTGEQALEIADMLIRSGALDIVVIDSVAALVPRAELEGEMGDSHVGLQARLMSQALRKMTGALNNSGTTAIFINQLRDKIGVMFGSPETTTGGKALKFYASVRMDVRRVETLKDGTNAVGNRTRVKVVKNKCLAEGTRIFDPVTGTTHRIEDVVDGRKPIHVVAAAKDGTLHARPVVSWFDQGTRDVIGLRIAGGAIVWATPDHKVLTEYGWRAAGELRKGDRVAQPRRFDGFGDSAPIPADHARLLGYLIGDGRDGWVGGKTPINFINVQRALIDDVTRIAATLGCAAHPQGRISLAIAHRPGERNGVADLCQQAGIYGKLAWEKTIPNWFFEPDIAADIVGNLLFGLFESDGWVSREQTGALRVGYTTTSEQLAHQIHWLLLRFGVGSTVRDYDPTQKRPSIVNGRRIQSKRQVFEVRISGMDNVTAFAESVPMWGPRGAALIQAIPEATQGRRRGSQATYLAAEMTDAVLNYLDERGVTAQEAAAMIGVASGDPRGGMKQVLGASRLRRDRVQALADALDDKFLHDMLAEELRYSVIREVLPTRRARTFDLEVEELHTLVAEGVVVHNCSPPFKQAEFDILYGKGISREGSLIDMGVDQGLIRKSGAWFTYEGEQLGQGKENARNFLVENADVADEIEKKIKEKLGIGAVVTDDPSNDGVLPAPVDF

[7] = target: T7, Replicative DNA helicase DnaB (Mycobacterium tuberculosis, UniProt P9WMR3); experiment: DnaB intein splicing inhibitors, dose response, biochemical, cell-free fluorescence (AID 449749); format: functional
T7 sequence (P9WMR3 whole entry): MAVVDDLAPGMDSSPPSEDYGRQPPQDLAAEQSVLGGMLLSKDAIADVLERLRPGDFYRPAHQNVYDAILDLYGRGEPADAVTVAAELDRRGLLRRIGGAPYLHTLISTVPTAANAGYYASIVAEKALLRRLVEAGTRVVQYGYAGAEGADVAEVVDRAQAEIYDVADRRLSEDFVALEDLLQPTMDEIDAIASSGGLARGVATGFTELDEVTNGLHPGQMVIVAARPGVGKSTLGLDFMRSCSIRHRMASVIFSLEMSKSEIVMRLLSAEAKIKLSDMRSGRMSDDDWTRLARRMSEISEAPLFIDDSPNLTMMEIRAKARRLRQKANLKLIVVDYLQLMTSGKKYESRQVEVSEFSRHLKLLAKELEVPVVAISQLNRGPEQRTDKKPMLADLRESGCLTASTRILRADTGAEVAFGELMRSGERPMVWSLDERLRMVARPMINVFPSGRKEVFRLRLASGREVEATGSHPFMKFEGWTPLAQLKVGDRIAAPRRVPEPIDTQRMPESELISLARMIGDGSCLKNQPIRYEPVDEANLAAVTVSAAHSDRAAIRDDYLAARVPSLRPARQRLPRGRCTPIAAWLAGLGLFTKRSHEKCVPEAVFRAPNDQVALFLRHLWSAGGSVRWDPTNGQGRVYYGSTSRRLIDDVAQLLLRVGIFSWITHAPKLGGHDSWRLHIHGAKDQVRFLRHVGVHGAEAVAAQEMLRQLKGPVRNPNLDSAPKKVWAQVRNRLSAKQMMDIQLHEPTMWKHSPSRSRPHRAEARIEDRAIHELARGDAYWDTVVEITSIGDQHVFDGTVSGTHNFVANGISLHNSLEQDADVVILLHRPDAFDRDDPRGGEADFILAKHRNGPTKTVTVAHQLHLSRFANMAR

[8] = target: Photoreceptor-specific nuclear receptor (Homo sapiens, UniProt Q9Y5X4); format: functional;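 further: potency for compounds that break the NR2E3 corepressor complex and count as activators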
Sequence of Photoreceptor-specific nuclear receptor (Q9Y5X4 whole entry): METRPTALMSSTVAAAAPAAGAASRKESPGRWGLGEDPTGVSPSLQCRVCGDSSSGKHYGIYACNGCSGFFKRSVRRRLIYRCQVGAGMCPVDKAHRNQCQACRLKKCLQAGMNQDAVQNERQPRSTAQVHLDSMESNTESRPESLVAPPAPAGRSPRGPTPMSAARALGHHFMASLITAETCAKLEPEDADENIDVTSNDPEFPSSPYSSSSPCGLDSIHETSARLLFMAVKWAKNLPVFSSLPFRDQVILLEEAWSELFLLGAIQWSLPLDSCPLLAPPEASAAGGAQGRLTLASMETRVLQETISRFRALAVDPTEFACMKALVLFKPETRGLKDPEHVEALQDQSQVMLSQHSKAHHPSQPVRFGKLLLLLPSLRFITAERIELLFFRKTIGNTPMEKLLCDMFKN

[9] = target: Peroxisome proliferator-activated receptor gamma/Nuclear receptor corepressor 2 (Homo sapiens, UniProt P37231+Q9Y618); format: functional

## Cc1ccc(/C=C/C(=O)NC(=S)Nc2ccc(S(=O)(=O)Nc3cc(C)on3)cc2)cc1
Streptokinase A
  EC50: 27.1 µM (inconclusive)
Streptococcus
  EC50: 62.4 µM (active)
[1]
  EC50: 9.56 µM (active)
Insulin-degrading enzyme
  IC50: 9.71 µM (active)
[2]
  IC50: > 55.7 µM (not active)

## O=C1c2ccccc2C(=O)N1Cc1ccc2c(c1)OCO2
HeLa
  AC50: 42.5 µM (active)

## O=C(Nc1ccc(S(=O)(=O)N2CCc3ccccc3C2)cc1)C1CCCO1 (configuration not stated)
[3]
  EC50: 3.27 µM (active)

## COc1ccc(NC(=O)NNC(=O)CCc2ccc(O)c(O)c2)cc1OC
Aspartyl aminopeptidase
  IC50: 2.51 µM (active)
Procathepsin L
  IC50: > 59.6 µM (not active)

## Cc1cccc(N2CCN(C(=O)c3cccc(N4C(=O)C5C6C=CC(C6)C5C4=O)c3)CC2)c1C (configuration not stated)
Insulin-degrading enzyme
  IC50: 6.73 µM (active)
[2]
  IC50: 17.4 µM (not active)

## CCCCCC(=O)NC(=S)NNC(=O)CC
[4]
  EC50: > 50 µM (active)

## COc1cc(C(=O)Nc2ccc3c(c2)OCCO3)ccc1OC(C)C
[4]
  EC50: > 50 µM (active)

## CN(Cc1ccccc1)C(=O)CCSc1nc(-c2ccc3c(c2)OCO3)cc(C(F)(F)F)n1
[3]
  EC50: 4.53 µM (active)
[5]
  IC50: > 20 µM (inactive)

## CC1=NNC(=O)/C1=C\c1cn(-c2ccccc2)nc1-c1ccc(F)cc1
[6]
  AC50: 6.52 µM (active)
Protein RecA
  EC50: 1.35 µM (active)
Aspartyl aminopeptidase
  IC50: 0.71 µM (active)
Procathepsin L
  IC50: > 59.6 µM (not active)
[7]
  AC50: 3.69 µM (active)

## CCOc1ccccc1NC(=O)CSc1nc(N)c(C#N)cc1C#N
[8]
  IC50: > 39.8 µM (not active)
[9]
  IC50: 3.03 µM (active)
